The values that follow are results of earlier work, collected in publication PMC4183665 (2014).

Data set [1] concerns dipeptidyl peptidase-4 (DPP-4).

“Also recorded” adds a separate entry of the source.

Consider H-HAEGTFTSDVSSYLEGQAAKEFIAWLVKGRG-NH2, for which the cleaved bond result in data set [1] is “cleaves after Ala8”; with neprilysin (NEP 24.11) it was “cleaves after Ser18; also recorded: cleaves after Tyr19; also recorded: cleaves after Glu27; also recorded: cleaves after Phe28”.
